PubChem BioAssay AID1963968 (Molecular Pharmacology Branch, DTP, NCI, 2024)
pIC50: −log10 of the molar value.

Test system: 945468-187-T-J3-PDC spheroids with HUVEC/MSC, viability
Experiment: Anticancer human tumor 945468-187-T-J3-PDC patient-derived rectal carcinoma cell line growth inhibition [PI3K]
Conditions: for pIC50: curve of first compound; for viability, T/C: stronger effect = lower value
Text: Combinatorial screen of targeted agents with the PI3K inhibitors inavolisib, alpelisib, duvelisib, and copanlisib in multi-cell type tumor spheroids
A high-throughput screen of multi-cell type tumor spheroids was designed to identify active combinations of targeted small molecules and PI3K pathway inhibitors. Complex spheroids include a stromal component modeled by human endothelial cells (HUVEC) and fibroblasts modeled by human mesenchymal stem cells (MSCs). The concentration ranges selected for each drug and investigational agent were based upon clinically achievable concentrations if the clinical Cmax of the agent was known.
Compounds. The drugs and investigational agents: inavolisib (NSC800729), alpelisib (NSC765974), duvelisib (NSC772469), copanlisib (NSC816437), ipatasertib (NSC767898), afuresertib (NSC778305), talazoparib (NSC767125), sapanisertib (NSC764658), selumetinib (NSC741078), tovorafenib (DAY101, NSC766906), vemurafenib (NSC761431), ravoxertinib (NSC781343), sotorasib (NSC818433), MRTX1133 (NSC 836407), abemaciclib (NSC 768073), palbociclib (NSC758247), venetoclax (NSC 766270), SY5609 (NSC837396), enzalutamide (NSC755605), and darolutamide (NSC825331), were obtained from the National Cancer Institute (NCI) Developmental Therapeutics Program Chemical Repository. The FDA-approved anticancer drug set is available from the NCI Developmental Therapeutics Program. […] The stock solutions were prepared in dimethyl sulfoxide (DMSO, Sigma-Aldrich, St. Louis, MO, cat. D2650) at 800-fold the tested concentration and stored at -70 degrees C prior to their use. All drugs and investigational agents were tested over a range starting from a high concentration at or near the clinical Cmax and decreasing in half-log increments. If the clinical Cmax for an agent had not been determined, the highest concentration tested was 10 microM.
Cell Culture. All cells were maintained in an incubator at 37 degrees C and 5% CO2 with 95% humidity. The PDC lines were cultured according to standard operating procedures established by the NCI PDMR (https://pdmr.cancer.gov/sops/default.htm). All PDCs were thawed and cultured in Matrigel-coated flasks prepared with a working solution of 1X Ham's F-12 nutrient mix, without supplementation (Invitrogen, Waltham, MA, cat. 11765054), 100 U/mL penicillin-streptomycin (Invitrogen, cat. 15140122), and 2.5% Matrigel (Corning Inc., Corning, NY, cat. 354248) for the first three passages. The 354836-022-R-J1-PDC, 475296-252-R-J1-PDC, and 997726-040-R-J2-PDC lines were cultured in 6A media, which includes advanced DMEM/F-12 (Thermo Fisher Scientific, cat. 12634028), 10 mM HEPES (Thermo Fisher Scientific, cat. 15630080), 1X GlutaMAX supplement (Thermo Fisher Scientific, cat. 35050061), 0.1 mg/mL primocin (InvivoGen, San Diego, CA, cat. ant-pm-2), 10% defined fetal bovine serum, heat inactivated (HyClone Laboratories Inc., Logan, UT, cat. SH30070.03HI), 50% L-WRN conditioned media (ATCC, cat. CRL-3276), 1.25 mM N-Acetyl-L-cysteine (Sigma-Aldrich, cat. A9165), 10 mM nicotinamide (Sigma-Aldrich, cat. N0636), 1X B-27 supplement (Thermo Fisher Scientific, cat. 17504044), 1X N-2 supplement (Thermo Fisher Scientific, cat. 17502048), and 10 microM Y-27632 dihydrochloride (Tocris Bioscience, Bristol, United Kingdom, cat. 1254). The 624824-186-R-J2-PDC line was cultured in 6C/Colon 1B media, which includes all 6A media components plus 50 ng/mL human EGF recombinant protein (Thermo Fisher Scientific, cat. PHG0311). […]

[1] = second compound 0.00316 µM, first compound 0.0316 µM
[2] = second compound 0.00316 µM, first compound 0.1 µM
[3] = second compound 0.00316 µM, first compound 0.316 µM
[4] = second compound 0.00316 µM, first compound 1 µM
[5] = second compound 0.00316 µM, first compound 3.16 µM
[6] = second compound 0.00316 µM, first compound 10 µM
[7] = second compound 0.01 µM, first compound 0.0316 µM
[8] = second compound 0.01 µM, first compound 0.1 µM
[9] = second compound 0.01 µM, first compound 0.316 µM
[10] = second compound 0.01 µM, first compound 1 µM
[11] = second compound 0.01 µM, first compound 3.16 µM
[12] = second compound 0.01 µM, first compound 10 µM
[13] = second compound 0.0316 µM, first compound 0.0316 µM
[14] = second compound 0.0316 µM, first compound 0.1 µM
[15] = second compound 0.0316 µM, first compound 0.316 µM
[16] = second compound 0.0316 µM, first compound 1 µM
[17] = second compound 0.0316 µM, first compound 3.16 µM
[18] = second compound 0.0316 µM, first compound 10 µM
[19] = second compound 0.1 µM, first compound 0.0316 µM
[20] = second compound 0.1 µM, first compound 0.1 µM
[21] = second compound 0.1 µM, first compound 0.316 µM
[22] = second compound 0.1 µM, first compound 1 µM
[23] = second compound 0.1 µM, first compound 3.16 µM
[24] = second compound 0.1 µM, first compound 10 µM
[25] = second compound 0.316 µM, first compound 0.0316 µM
[26] = second compound 0.316 µM, first compound 0.1 µM
[27] = second compound 0.316 µM, first compound 0.316 µM
[28] = second compound 0.316 µM, first compound 1 µM
[29] = second compound 0.316 µM, first compound 3.16 µM
[30] = second compound 0.316 µM, first compound 10 µM
[31] = second compound 1 µM, first compound 0.0316 µM
[32] = second compound 1 µM, first compound 0.1 µM
[33] = second compound 1 µM, first compound 0.316 µM
[34] = second compound 1 µM, first compound 1 µM
[35] = second compound 1 µM, first compound 3.16 µM
[36] = second compound 1 µM, first compound 10 µM
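Note: spheroids exposed to agents for 7 days before viability read.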
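Throughout, for viability, T/C: 100% = DMSO vehicle control viability.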

Work on CC(C)NCC(C(=O)N1CCN(c2ncnc3c2C(C)CC3O)CC1)c1ccc(Cl)cc1 (stereo unspecified) + CC(Nc1ccc2c(c1)OCCn1cc(N3C(=O)OCC3C(F)F)nc1-2)C(N)=O yielded a pIC50 (second compound 0.00316 µM) of 5.07, a pIC50 (second compound 0.01 µM) of under 5.00 and a pIC50 (second compound 0.0316 µM) of 5.16. It also gave a pIC50 (second compound 0.1 µM) of 5.55, a pIC50 (second compound 0.316 µM) of 6.04 and a pIC50 (second compound 1 µM) of 5.86. The viability, T/C [1] was 93.8%, the viability, T/C [2] was 93.9% and the viability, T/C [3] was 103%. For the same molecule, the viability, T/C [4] was 91.6%, the viability, T/C [5] was 58.6% and the viability, T/C [6] was 48.5%. The viability, T/C [7] was 111%, the viability, T/C [8] was 103% and the viability, T/C [9] was 104%. For the same molecule, the viability, T/C [10] was 96.7%, the viability, T/C [11] was 54.9% and the viability, T/C [12] was 59.2%. It also gave a viability, T/C [13] of 93.7%, a viability, T/C [14] of 91.8% and a viability, T/C [15] of 94.1%. It also gave a viability, T/C [16] of 90.9%, a viability, T/C [17] of 55.6% and a viability, T/C [18] of 47.3%. It also gave a viability, T/C [19] of 101%, a viability, T/C [20] of 93.4% and a viability, T/C [21] of 87%. The viability, T/C [22] was 76.4%, the viability, T/C [23] was 45% and the viability, T/C [24] was 31.5%. It also gave a viability, T/C [25] of 101%, a viability, T/C [26] of 89.3% and a viability, T/C [27] of 62.7%. The viability, T/C [28] was 49.6%, the viability, T/C [29] was 39% and the viability, T/C [30] was 29.3%. For the same molecule, the viability, T/C [31] was 62.8%, the viability, T/C [32] was 70.4% and the viability, T/C [33] was 57.8%. It also gave a viability, T/C [34] of 57.3%, a viability, T/C [35] of 34.1% and a viability, T/C [36] of 26.7%.

With CCN1CCN(Cc2ccc(Nc3ncc(F)c(-c4cc(F)c5nc(C)n(C(C)C)c5c4)n3)nc2)CC1 + CC(Nc1ccc2c(c1)OCCn1cc(N3C(=O)OCC3C(F)F)nc1-2)C(N)=O the pIC50 (second compound 0.00316 µM) was under 6.00, the pIC50 (second compound 0.01 µM) was under 6.00 and the pIC50 (second compound 0.0316 µM) was under 6.00. For the same molecule, the pIC50 (second compound 0.1 µM) was 6.27, the pIC50 (second compound 0.316 µM) was 6.72 and the pIC50 (second compound 1 µM) was 7.53. It also gave a viability, T/C (second compound 0.00316 µM, first compound 0.00316 µM) of 92%, a viability, T/C (second compound 0.00316 µM, first compound 0.01 µM) of 103% and a viability, T/C [1] of 98%. For the same molecule, the viability, T/C [2] was 95.6%, the viability, T/C [3] was 95.2% and the viability, T/C [4] was 93.1%. For the same molecule, the viability, T/C (second compound 0.01 µM, first compound 0.00316 µM) was 89.4%, the viability, T/C (second compound 0.01 µM, first compound 0.01 µM) was 103% and the viability, T/C [7] was 95.1%. The viability, T/C [8] was 106%, the viability, T/C [9] was 123% and the viability, T/C [10] was 70.1%. The viability, T/C (second compound 0.0316 µM, first compound 0.00316 µM) was 104%, the viability, T/C (second compound 0.0316 µM, first compound 0.01 µM) was 96.7% and the viability, T/C [13] was 94.2%. For the same molecule, the viability, T/C [14] was 97.3%, the viability, T/C [15] was 102% and the viability, T/C [16] was 53%. The viability, T/C (second compound 0.1 µM, first compound 0.00316 µM) was 91.2%, the viability, T/C (second compound 0.1 µM, first compound 0.01 µM) was 102% and the viability, T/C [19] was 94.1%. The viability, T/C [20] was 94.1%, the viability, T/C [21] was 69% and the viability, T/C [22] was 28.1%. It also gave a viability, T/C (second compound 0.316 µM, first compound 0.00316 µM) of 87.7%, a viability, T/C (second compound 0.316 µM, first compound 0.01 µM) of 77.5% and a viability, T/C [25] of 77.8%. It also gave a viability, T/C [26] of 69.7%, a viability, T/C [27] of 35% and a viability, T/C [28] of 23.4%. For the same molecule, the viability, T/C (second compound 1 µM, first compound 0.00316 µM) was 76.9%, the viability, T/C (second compound 1 µM, first compound 0.01 µM) was 56.7% and the viability, T/C [31] was 48.6%. The viability, T/C [32] was 43%, the viability, T/C [33] was 32.1% and the viability, T/C [34] was 25%.

For Cn1ncc(Cl)c1-c1cc(C(=O)NC(CN)Cc2cccc(F)c2)sc1Cl (stereo unspecified) + CC(Nc1ccc2c(c1)OCCn1cc(N3C(=O)OCC3C(F)F)nc1-2)C(N)=O, the pIC50 (second compound 0.00316 µM) was 5.27, the pIC50 (second compound 0.01 µM) was 5.51 and the pIC50 (second compound 0.0316 µM) was 5.59. For the same molecule, the pIC50 (second compound 0.1 µM) was 5.74, the pIC50 (second compound 0.316 µM) was 5.95 and the pIC50 (second compound 1 µM) was 6.71. It also gave a viability, T/C [1] of 100%, a viability, T/C [2] of 99% and a viability, T/C [3] of 83.8%. The viability, T/C [4] was 80.8%, the viability, T/C [5] was 58.9% and the viability, T/C [6] was 38.1%. For the same molecule, the viability, T/C [7] was 107%, the viability, T/C [8] was 107% and the viability, T/C [9] was 100%. For the same molecule, the viability, T/C [10] was 86.2%, the viability, T/C [11] was 48.5% and the viability, T/C [12] was 38.2%. The viability, T/C [13] was 118%, the viability, T/C [14] was 99.6% and the viability, T/C [15] was 82.4%. For the same molecule, the viability, T/C [16] was 62%, the viability, T/C [17] was 47.6% and the viability, T/C [18] was 35.1%. For the same molecule, the viability, T/C [19] was 96.6%, the viability, T/C [20] was 89.5% and the viability, T/C [21] was 81.8%. The viability, T/C [22] was 55.8%, the viability, T/C [23] was 43.9% and the viability, T/C [24] was 25.9%. The viability, T/C [25] was 96%, the viability, T/C [26] was 87.8% and the viability, T/C [27] was 57.5%. It also gave a viability, T/C [28] of 55.6%, a viability, T/C [29] of 38.5% and a viability, T/C [30] of 23.3%. The viability, T/C [31] was 89.4%, the viability, T/C [32] was 55.2% and the viability, T/C [33] was 45.4%. It also gave a viability, T/C [34] of 32.9%, a viability, T/C [35] of 33% and a viability, T/C [36] of 19.6%.
